# Experimental data reported in US20250051314A1, “SMALL MOLECULE INHIBITORS OF INTERFERON GAMMA SIGNALING” (INSTITUT CURIE, priority 2021, published 2025).
# Assays:
# Assay type in all cases: cell-based
# [1] = system: formin-mediated actin assembly; assay: In cellulo actin nucleation assay (phalloidin staining, cell area); conditions: Hela cells, 40 μM, 20 min
# Description: Hela cells grown on coverslips were treated with DMEM containing 0.2% BSA and the compounds (40 μM) for 20 min at 37° C., washed with cold PBS (two times) and then fixed with 4% paraformaldehyde for 30 min at room temperature, quenched in 50 mM NH4Cl for 10 min and permeabilized with 0.05% saponin in 0.2% BSA in PBS for 20 min. Cells were incubated with 165 nM phalloidin for 1 h at room temperature. DAPI containing fluoromount-G was used to mount coverslips onto glass slide. Cell areas were measured with ImageJ software (NIH).
# [2] = system: IFNγ-induced tyrosine phosphorylation of STAT1 (pSTAT1); assay: JAK/STAT signalling activation assay (pSTAT1/tSTAT1 immunoblot); conditions: Hela cells; for inhibition of IFNγ-induced pSTAT1 (IFNγ-signaling), result in words: screening at 40 μM; for inhibition of IFNγ-induced pSTAT1 (IFNγ-signaling), result in words / inhibition of phosphorylation of STAT, dose-response in words: 20 min pre-incubation with IFNγ; for inhibition of phosphorylation of STAT, dose-response in words: different concentrations; for IC50: Homo sapiens, 1000 U/ml IFNγ pre-incubated 20 min with compound, non-linear curve fit, n=3, read-out: IC50 pSTAT1 inhibition
# Description: Cell culture: Hela cells were grown at 37° C. under 5% CO2 in DMEM high glucose Glutamax (Gibco, Life Technologies) complemented with 10% FBS (v/v) (Gibco, Life Technologies) and supplemented with 5 mM pyruvate (v/v) (Gibco, Life Technologies) and 1% penicillin-streptomycin (v/v) (Gibco, Life Technologies). Primary antibodies: Mouse anti-phospho-STAT1 Tyr701 (BD Transduction Laboratories, 612132, RRID: AB_399503, 1:1000 for western blot), rabbit anti-STAT1 (Cell Signaling, 9172, RRID: AB_2198300, 1:1000 for western blot), mouse anti-alpha-tubulin (Sigma, clone B512, T5168, RRID: AB_86546, 1:5000 for western blot); rabbit anti-IFN-γ ([Abcam, EPR1108, ab133566, 1:1000 for western blot). Secondary antibodies anti-mouse-Alexa488 (Invitrogen, A21202), anti-mouse-HRP (Jackson ImmunoResearch, 715-035-151) and anti-rabbit-HRP (Jackson ImmunoResearch, […]) were used at 1:5000 for western blot.
# 20 mM stock solution of compounds in DMSO were prepared and stored at −20° C.
# Hela cells were treated 20 min at 37° C. with mixture containing 1000 U·ml^−1 IFNγ in DMEM with 0.2% BSA preincubated for 20 min at 37° C. with DMSO (as control) for JAK/STAT stimulation. For screening compounds, 40 μM compounds were pre-incubated with 1000 U·ml^−1 of IFNγ in DMEM containing 0.2% BSA for 20 min at 37° C. before adding it to Hela cells. 10-fold 7 or 5 serial dilutions from 400 μM of compounds were made in DMEM containing 1000 U·ml^−1 of IFNγ and 0.2% BSA, and incubated for 20 min before stimulating JAK/STAT for finding IC50 towards IFNγ.
# Cells were lysed in sample buffer (62.5 mM Tris/HCl, […], 2% v/v SDS, 10% glycerol v/v, 40 mM dithiothreitol, and 0.03% w/v phenol red). Samples were analysed by SDS-PAGE on 4-15% Mini-PROTEAN* TGX™ Precast Gels or on 4-15% Mini-PROTEAN′ TGX™ Stain Free Gel (Bio-Rad) and immuno-blotted with the indicated primary antibodies and horseradish peroxidase- or Alexa488-conjugated secondary antibodies. […] Acquisition and quantification were performed with the ChemiDoc MP Imaging System (Bio-Rad). Phosphorylated protein over total protein ratio was determined on the same blot using horseradish peroxidase and Alexa488 signals.
# Hela cells = assay: Cell viability assay (CellTiter-Blue); conditions: Hela cells treated for 24 h; for IC50: Homo sapiens, n=3
# Description: Cell viability assay was carried out by plating 10,000 cells/well in 96-well plates. 3-Fold 8 serial dilutions of the compounds from 3 mM were made in DMEM. HeLa cells were treated for 24 h with the compounds of different concentrations made. In case of preincubation with IFNγ, 6000 U·ml^−1 of IFNγ per concentration of compounds were used and incubated for 20 min. According to manufacturer's protocol,
# CellTiter-Blue® reagent was added after 24 h treatment and cells were incubated for 3 h before recording fluorescence intensities (λex. 560/20 nm; λem. 590/10 nm) using a Perkin Elmer Wallac 1420 Victor2 Microplate Reader.
Structure (SMILES),"formin targeting / actin assembly (phalloidin pattern, cell area), result in words [1]","inhibition of IFNγ-induced pSTAT1 (IFNγ-signaling), result in words [2]","inhibition of phosphorylation of STAT, dose-response in words [2]",IC50 [2] [µM],cytotoxicity at effective doses (Hela cells),IC50 (Hela cells) [µM]
"Cc1ccc(C=C2C(=O)NC(=S)N(c3cccc(F)c3)C2=O)o1 [Compound 6a, 1-(3-fluorophenyl)-5-((5-methylfuran-2-yl)methylene)-2-thioxodihydropyrimidine-4,6(1H,5H)-dione]",inhibited either IFNγ-signaling or formins,–,–,–,–,–
"O=C1NC(=S)N(c2cccc(Br)c2)C(=O)C1=Cc1ccco1 [SMIFH2, 1-(3-Bromophenyl)-5-(2-furylmethylene)-2-thioxo-hexahydropyrimidine-4,6-dione, reference compound]",–,capable of inhibiting IFNγ signaling,–,–,–,–
"C#Cc1ccc(C=C2C(=O)N(c3cccc(Br)c3)C(=S)N(c3cccc(Br)c3)C2=O)o1 [Compound 5j, 1,3-bis(3-bromophenyl)-5-((5-ethynylfuran-2-yl)methylene)-2-thioxodihydropyrimidine-4,6(1H,5H)-dione]",–,biologically active compounds,dose-dependent manner in the low micromolar range,4.63,did not show significant cytotoxicity at effective doses,308
"O=C1NC(=S)N(c2cccc(F)c2)C(=O)C1=Cc1ccc(Br)o1 [Compound 6i, 5-((5-bromofuran-2-yl)methylene)-1-(3-fluorophenyl)-2-thioxodihydropyrimidine-4,6(1H,5H)-dione]",inhibited either IFNγ-signaling or formins,–,–,–,–,–
"C#Cc1ccc(C=C2C(=O)NC(=S)N(c3cccc(F)c3)C2=O)o1 [Compound 5b, 5-((5-ethynylfuran-2-yl)methylene)-1-(3-fluorophenyl)-2-thioxodihydropyrimidine-4,6(1H,5H)-dione]",–,–,dose-dependent manner in the low micromolar range,1.05,did not show significant cytotoxicity at effective doses,95
"O=C1NC(=S)N(c2cccc(F)c2)C(=O)C1=Cc1ccc(Cl)o1 [Compound 6b, 5-((5-chlorofuran-2-yl)methylene)-1-(3-fluorophenyl)-2-thioxodihydropyrimidine-4,6(1H,5H)-dione]",–,inhibited either IFNγ-signaling or formins,–,–,–,–
"C#Cc1ccc(C=C2C(=O)N(c3cccc(F)c3)C(=S)N(c3cccc(F)c3)C2=O)o1 [Compound 5k, 5-((5-ethynylfuran-2-yl)methylene)-1,3-bis(3-fluorophenyl)-2-thioxodihydropyrimidine-4,6(1H,5H)-dione]",–,–,dose-dependent manner in the low micromolar range,5.97,did not show significant cytotoxicity at effective doses,95
"C#Cc1ccc(C=C2C(=O)NC(=S)N(c3cccc(Br)c3)C2=O)o1 [Compound 5a, (1-(3-bromophenyl)-5-((5-ethynylfuran-2-yl)methylene)-2-thioxodihydropyrimidine-4,6(1H,5H)-dione)]",deprived of formin targeting,inhibited IFNγ-induced pSTAT1,dose-dependent manner in the low micromolar range,1.08,did not show significant cytotoxicity at effective doses,331
"C#Cc1ccc(C=C2C(=O)NC(=O)N(c3cccc(Br)c3)C2=O)o1 [Compound 5l, 1-(3-bromophenyl)-5-((5-ethynylfuran-2-yl)methylene)pyrimidine-2,4,6(1H,3H,5H)-trione]",retained its activity against both IFNγ-signaling and formin,retained its activity against both IFNγ-signaling and formin,–,–,–,–
"O=C1NC(=O)N(c2cccc(Br)c2)C(=O)C1=Cc1ccco1 [Compound 6l, 1-(3-bromophenyl)-5-(furan-2-ylmethylene)pyrimidine-2,4,6(1H,3H,5H)-trione]",–,did not show IFNγ-signaling inhibitory activity,–,–,–,–
